Assay results from patent US20240016953A1, “TARGETED DELIVERY OF NICOTINAMINDE ADENINE DINUCLEOTIDE SALVAGE PATHWAY INHIBITORS” (Seagen Inc., priority 2016, published 2024).

How the values were obtained:
[1] = system: HepG2 (hepatocellular carcinoma); assay: Cytotoxicity (CellTiter-Glo) assay, HepG2; type: cell-based; details: Homo sapiens, HepG2, read-out: IC50, Cytotoxicity HepG2
Description: (§1) Example 99: Binding and cytoxicity of NAMPTi compounds. NAMPTi compounds and derivatives thereof bearing functional groups on their NAMPT Tail (TN) Units for covalent attachment as a NAMPT Drug Unit to a Linker Unit of a Drug Linker compound or Ligand Drug Conjugate were evaluated for binding to enzymatically competent NAMPT using a fluorescence polarization assay as described in Example X, and for cytotoxicity using the CellTiter-Glo™ assay as described in Example XX. […] In vitro cytotoxicities were more varied, with differences in membrane permeability potentially influencing the observed IC50 values. Tighter-binding compounds determined from the polarization assay representation various NAMPT Head Unit classes were selected for further elaboration into drug linker moieties within Drug Linker compounds and Ligand Drug Conjugates. Those elaborations employed carbamate or benzyl ether functional groups or methylene-alkoxy carbamate (MAC) units for covalent attachment of the NAMPT Drug Unit to a self-immolative Spacer Unit in the Linker Units of the drug linker moieties, depending on the functional group presented by the TN Unit.

[2] = system: MOLM-13 (acute myeloid leukemia); assay: Cytotoxicity (CellTiter-Glo) assay, MOLM-13; type: cell-based; details: Homo sapiens, MOLM-13, read-out: IC50, Cytotoxicity MOLM-13
Description: as §1

[3] = system: BxPC-3 (pancreatic adenocarcinoma); assay: Cytotoxicity (CellTiter-Glo) assay, BxPC-3; type: cell-based; details: Homo sapiens, BXPC-3, read-out: IC50, Cytotoxicity BxPC-3
Description: as §1

[4] = system: L540cy (Hodgkin's lymphoma); assay: Cytotoxicity (CellTiter-Glo) assay, L540cy; type: cell-based; details: read-out: IC50, Cytotoxicity L540cy
Description: as §1

[5] = molecular target: T1, NAMPT (Homo sapiens, UniProt P43490); assay: Fluorescence polarization (FP) assay for binding to purified NAMPT; details: for IC50: NAMPT 120 nM, fluorescent probe 30 nM, 4 hours at room temp
T1 construct: made in house; host or cells: E. coli (pET28a vector, Novagen)
T1 sequence (P43490 whole entry): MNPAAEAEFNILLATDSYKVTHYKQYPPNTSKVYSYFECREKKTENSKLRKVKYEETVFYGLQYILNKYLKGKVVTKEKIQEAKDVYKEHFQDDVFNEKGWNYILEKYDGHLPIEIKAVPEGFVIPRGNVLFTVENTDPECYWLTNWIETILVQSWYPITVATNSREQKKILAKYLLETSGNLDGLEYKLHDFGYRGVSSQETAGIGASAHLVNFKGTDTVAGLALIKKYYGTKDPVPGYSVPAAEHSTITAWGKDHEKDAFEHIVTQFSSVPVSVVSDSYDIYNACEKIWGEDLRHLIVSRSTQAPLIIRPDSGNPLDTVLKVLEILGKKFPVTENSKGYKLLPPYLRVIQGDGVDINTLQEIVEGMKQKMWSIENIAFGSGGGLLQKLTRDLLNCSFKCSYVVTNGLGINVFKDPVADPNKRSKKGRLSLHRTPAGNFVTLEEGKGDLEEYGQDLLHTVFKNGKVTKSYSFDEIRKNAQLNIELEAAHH

Structure (SMILES) | IC50 [5] | IC50 [1] | IC50 [2] | IC50 [3] | IC50 [4] | Change in NAMPT enzyme binding on modification of the TN Unit, relative to parent NAMPTi compound ([5]; FP assay, in words)
N#CN=C(NCCCCCCOc1ccc(Cl)cc1)Nc1ccncc1 [CHS-828, reference compound] |  | 0.00116 µM | 0.00462 µM | 0.00802 µM | 0.00222 µM | 
O=C(/C=C/c1cccnc1)NCCCCC1CCN(C(=O)c2ccccc2)CC1 [FK-866, reference compound] |  | 0.00545 µM | 0.00664 µM | 0.0362 µM | 0.00732 µM | 
Nc1cccc(C(=O)N2CCC(CCCCNC(=O)/C=C/c3cccnc3)CC2)c1 [compound 3] | 0.04 µM | 0.008 µM | 0.007 µM | 0.0385 µM | 0.0085 µM | 
Nc1ccc(C(=O)N2CCC(CCCCNC(=O)/C=C/c3cccnc3)CC2)cc1 [compound 4, (E)-N-(4-(1-(4-Aminobenzoyl)Piperidin-4-Yl)Butyl)-3-(Pyridin-3-y1)Acrylamide] | 0.114 µM |  |  |  |  | 
Nc1ccccc1C(=O)N1CCC(CCCCNC(=O)/C=C/c2cccnc2)CC1 [compound 5, (E)-N-(4-(1-(2-Aminobenzoyl)Piperidin-4-Yl)Butyl)-3-(Pyridin-3-Yl)Acrylamide] | 0.101 µM | 1 µM | 0.04 µM | 0.694 µM | 0.035 µM | 
O=C(/C=C/c1cccnc1)NCCCCC1CCN(C(=O)c2ccc(O)cc2)CC1 [compound 7, (E)-N-(4-(1-(4-Hydroxybenzoyl)Piperidin-4-Yl)Butyl)-3-(Pyridin-3-Yl)Acrylamide] | 0.079 µM |  |  |  |  | 
O=C(/C=C/c1cccnc1)NCCCCC1CCN(C(=O)c2ccccc2O)CC1 [compound 8, (E)-N-(4-(1-(2-Hydroxybenzoyl)Piperidin-4-Yl)Butyl)-3-(Pyridin-3-Yl)Acrylamide] | 0.101 µM | 0.221 µM | 0.099 µM | 0.643 µM | 0.0873 µM | 
O=C(/C=C/c1cccnc1)NCCCCC1CCN(C(=O)c2cccc(OCCO)c2)CC1 [compound 9, (E)-N-(4-(1-(3-(2-Hydroxyethoxy)Benzoyl)Piperidin-4-Yl)Butyl)-3-(Pyridin-3-Yl)Acrylamide] | 0.08 µM |  |  |  |  | 
O=C(/C=C/c1cccnc1)NCCCCC1CCN(C(=O)c2ccc(OCCO)cc2)CC1 [compound 10, (E)-N-(4-(1-(4-(2-Hydroxyethoxy)Benzoyl)Piperidin-4-Yl)Butyl)-3-(Pyridin-3-Yl)Acrylamide] | 0.091 µM |  |  |  |  | 
CN(CCON(C(=O)CCCCCCNC(=O)Nc1ccncc1)C1CCCCC1)C(=O)c1cccc(N)c1 [compound 43, 3-Amino-N-(2-((N-Cyclohexyl-7-(3-(Pyridin-4-Yl)Ureido)-Heptanamido)Oxy)Ethyl)-N-Methylbenzamide] | 0.082 µM | 0.004 µM | 0.006 µM | 0.008 µM | 0.003 µM | significant improvement in binding relative to parent compound 30
N#C/N=C(\NCCCCCCCC(=O)N1CCC(O)CC1)Nc1ccncc1 [compound 82, (E)-2-Cyano-1-(8-(4-Hydroxypiperidin-1-Yl)-8-Oxooctyl)-3-(Pyridin-4-Yl)Guanidine] |  | 0.025 µM | 0.01 µM | 0.169 µM | 0.039 µM | 

Now from value to compound, other results behind:

IC50 [5] | Structure (SMILES) | IC50 [1] | IC50 [2] | IC50 [3] | IC50 [4] | Change in NAMPT enzyme binding on modification of the TN Unit, relative to parent NAMPTi compound ([5]; FP assay, in words)
0.036 µM | O=C(/C=C/c1cccnc1)NCCCCC1CCN(C(=O)c2cccc(O)c2)CC1 [compound 6, (E)-N-(4-(1-(3-Hydroxybenzoyl)Piperidin-4-Yl)Butyl)-3-(Pyridin-3-Yl)Acrylamide] | 0.029 µM | 0.008 µM | 0.193 µM | 0.02 µM | 
0.041 µM | O=C(CCCCCCNc1c(Nc2ccncc2)c(=O)c1=O)N(OCCN1CCOCC1)C1CCCCC1 [compound 52, reference compound] | 0.00875 µM | 0.00526 µM | 0.0391 µM | 0.00476 µM | 
0.062 µM | CCN(CCON(C(=O)CCCCCCNc1c(Nc2ccncc2)c(=O)c1=O)C1CCCCC1)C(=O)c1cccc(N)c1 [compound 60] | 0.035 µM | 0.008 µM | 0.126 µM | 0.031 µM | 
0.024 µM | O=C(CCCCCCCNc1c(Nc2ccncc2)c(=O)c1=O)N(CCO)Cc1ccco1 [compound 66] | 0.0598 µM | 0.0269 µM | 0.209 µM | 0.0225 µM | 
0.016 µM | O=C(CCCCCCCNc1c(Nc2ccncc2)c(=O)c1=O)N1CCC(O)CC1 [compound 67] | 0.948 µM | 0.108 µM | 1 µM | 0.265 µM | 
0.027 µM | O=C(CCCCCCCNc1c(Nc2ccncc2)c(=O)c1=O)N1CC(O)C1 [compound 68] | 1 µM | 0.811 µM | 1 µM | 1 µM | 
0.035 µM | CN(CC1(CO)CCCC1)C(=O)CCCCCCCNc1c(Nc2ccncc2)c(=O)c1=O [compound 69, 8-((3,4-Dioxo-2-(Pyridin-4-Ylamino)Cyclobut-1-En-1-Yl)Amino)-N-((1-(Hydroxymethyl)Cyclopentyl)Methyl)-N-Methyloctanamide] | 0.0125 µM | 0.018 µM | 0.0969 µM | 0.00912 µM | 
0.029 µM | CN(CCO)C(=O)CCCCCCCNc1c(Nc2ccncc2)c(=O)c1=O [compound 72] | 1 µM | 0.807 µM | 1 µM | 1 µM | 
0.017 µM | CN(CC1(CO)CCCC1)C(=O)CCCCCCCN/C(=N\C#N)Nc1ccncc1 [compound 80, (E)-8-(2-Cyano-3-(Pyridin-4-Yl)Guanidino)-N-((1-(Hydroxymethyl)Cyclopentyl)Methyl)-N-Methyloctanamide] | 0.00108 µM | 0.00163 µM | 0.00612 µM | 0.00078 µM | 
0.024 µM | N#C/N=C(\NCCCCCCCC(=O)N(CCO)Cc1ccco1)Nc1ccncc1 [compound 81, (E)-8-(2-Cyano-3-(Pyridin-4-Yl)Guanidino)-N-(Furan-2-Ylmethyl)-N-(2-Hydroxyethyl)Octanamide] | 0.00644 µM | 0.00207 µM | 0.0177 µM | 0.0016 µM | 
0.032 µM | CN(CCO)C(=O)CCCCCCCN/C(=N\C#N)Nc1ccncc1 [compound 83, (E)-8-(2-Cyano-3-(Pyridin-4-Yl)Guanidino)-N-(2-Hydroxyethyl)-N-Methyloctanamide] | 0.0754 µM | 0.153 µM | 0.886 µM | 0.0512 µM | 
